Measurements: patent US6310091A, “Fungicidal saponin, CAY-1, and isolation thereof from Capsium species fruit” (The United States of America as represented by the …, priority 2000, dated 2001)
Values joined by “and” are separate entries in the source; they are usually repeats but may differ in a detail not shown here. Equal values may be shown once. Read-outs that look alike come from different tables or passages of the source.

Legend:
Format in all cases: cell-based
Aspergillus parasiticus = assay: Fungicidal bioassay on nongerminated and germinating conidia of A. parasiticus; settings: for activity at 5 µM / activity at 10 µM / activity at 15 µM / activity at 20 µM / minimal effective concentration: Aspergillus parasiticus, 0.5 h; for activity at 5 µM / activity at 10 µM / activity at 15 µM / activity at 20 µM: read-out: Percent of Mean Control; for viability reduction: 20.0 μM (24.8 μg/ml)
Description: (§1) 1. Filamentous fungi. Filamentous fungi used in bioassays included Aspergillus flavus, A. fumigatus, A. niger, A. parasiticus and Fusarium oxysporum. The fungicidal properties of CAY-1 for the nongerminated and germinating conidia of these fungi were determined separately as described by De Lucca et al. [Med. Mycol., 36:291-298 (1998)] and De Lucca et al. [Antimicrob. Agents Chemother. 43:371-373 (1999)]. […] Two separate experiments were conducted in each medium (n=8 per medium).
(§2) A suspension of the aforementioned fungi were prepared separately in the appropriate medium. Conidia (10^4 conidia/ml) were used immediately for the nongerminated conidial assays while conidia (10^5 conidia/ml) were incubated for 7.5 hours at 30° C. to obtain germinating conidia. Serial dilutions of CAY-1 were prepared in the appropriate medium (totaling 225 μl) to which was added 25 μl of the conidial suspensions. The control consisted of 225 μl of medium and 25 μl of the conidial suspension. After mixing, the samples were incubated for 30 min (30° C.). Samples were then spread on potato dextrose agar plates which were incubated at 30° C. for 24 hours. Colonies were then enumerated.
(§3) Statistical analyses. ANOVA analyses on ranks for nonparametric data were performed for the bioassays described in this example.

Aspergillus niger = assay: Fungicidal bioassay on nongerminated and germinating conidia of A. niger; settings: for activity at 5 µM / activity at 10 µM / activity at 15 µM / activity at 20 µM / activity at 1 µM / activity at 2.5 µM: read-out: Percent of Mean Control
Description: as §1, §2, §3

Fusarium oxysporum = assay: Fungicidal bioassay on nongerminated and germinating conidia of F. oxysporum
Description: as §1, §2, §3

Candida albicans = assay: Effect on C. albicans viability (NCCLS broth dilution M-27A)
Description: 2. Candida albicans. The effect of CAY-1 on C. albicans viability was determined by the NCCLS methods (National Committee for Clinical Laboratory Standards, Wayne, Pa., 1997. Reference method for broth dilution antifungal susceptibility testing of yeasts. Approved standard M-27A, herein incorporated by reference).

[1] = nongerminated, RPMI-1640, 5.0 μM
[2] = nongerminated, RPMI-1640, 10.0 μM
[3] = nongerminated, RPMI-1640, 15.0 μM
[4] = nongerminated, RPMI-1640, 20.0 μM
[5] = nongerminated conidia, either test medium

CC1CCC2(OC1)OC1CC3C4CCC5CC(OC6OC(CO)C(OC7OC(CO)C(O)C(OC8OC(CO)C(O)C(OC9OC(CO)C(O)C(O)C9O)C8O)C7OC7OC(CO)C(O)C(O)C7O)C(O)C6O)C(O)CC5(C)C4CCC3(C)C1C2C (centres unmarked) [CAY-1]
activity at 5 µM (Aspergillus parasiticus; germinated, RPMI-1640, 5.0 μM): 56.6%
activity at 10 µM (Aspergillus parasiticus; germinated, RPMI-1640, 10.0 μM): 17.5%
activity at 15 µM (Aspergillus parasiticus; germinated, RPMI-1640, 15.0 μM): 12.7%
activity at 20 µM (Aspergillus parasiticus; germinated, RPMI-1640, 20.0 μM): 8.1%
activity at 5 µM (Aspergillus parasiticus; germinating, 1% PDB, 5.0 μM): 61.9%
activity at 10 µM (Aspergillus parasiticus; germinating, 1% PDB, 10.0 μM): 28%
activity at 15 µM (Aspergillus parasiticus; germinating, 1% PDB, 15.0 μM): 21%
activity at 20 µM (Aspergillus parasiticus; germinating, 1% PDB, 20.0 μM): 16.5%
activity at 5 µM (Aspergillus parasiticus; nongerminated, 1% PDB, 5.0 μM): 97.3%
activity at 10 µM (Aspergillus parasiticus; nongerminated, 1% PDB, 10.0 μM): 100%
activity at 15 µM (Aspergillus parasiticus; nongerminated, 1% PDB, 15.0 μM): 93.9%
activity at 20 µM (Aspergillus parasiticus; nongerminated, 1% PDB, 20.0 μM): 94.5%
activity at 5 µM (Aspergillus parasiticus; [1]): 103%
activity at 10 µM (Aspergillus parasiticus; [2]): 103%
activity at 15 µM (Aspergillus parasiticus; [3]): 87.9%
activity at 20 µM (Aspergillus parasiticus; [4]): 97.6%
minimal effective concentration (Aspergillus parasiticus; read-out: concentration required for significant viability reduction): 12.4 µg/mL
minimal effective concentration (Aspergillus parasiticus; germinating conidia, 1% PDB, p=0.001, read-out: concentration significantly reducing viability): 5 µM and 6.2 µg/mL
minimal effective concentration (Aspergillus parasiticus; germinating conidia, RPMI-1640, p=0.0002, read-out: concentration required for significant viability reduction): 10 µM
Mean No. of Colonies (Aspergillus parasiticus; germinated, RPMI-1640, 5.0 μM): 40.1
Mean No. of Colonies (Aspergillus parasiticus; germinated, RPMI-1640, 10.0 μM): 12.4
Mean No. of Colonies (Aspergillus parasiticus; germinated, RPMI-1640, 15.0 μM): 9.0
Mean No. of Colonies (Aspergillus parasiticus; germinated, RPMI-1640, 20.0 μM): 5.7
viability reduction (Aspergillus parasiticus; germinating conidia, 1% PDB): 85%
viability reduction (Aspergillus parasiticus; germinating conidia, RPMI-1640): 92%
Mean No. of Colonies (Aspergillus parasiticus; germinating, 1% PDB, 5.0 μM): 95.5
Mean No. of Colonies (Aspergillus parasiticus; germinating, 1% PDB, 10.0 μM): 43.3
Mean No. of Colonies (Aspergillus parasiticus; germinating, 1% PDB, 15.0 μM): 32.5
Mean No. of Colonies (Aspergillus parasiticus; germinating, 1% PDB, 20.0 μM): 25.5
viability of nongerminated conidia (Aspergillus parasiticus; [5]): not affected
Mean No. of Colonies (Aspergillus parasiticus; nongerminated, 1% PDB, 5.0 μM): 53.1
Mean No. of Colonies (Aspergillus parasiticus; nongerminated, 1% PDB, 10.0 μM): 54.6
Mean No. of Colonies (Aspergillus parasiticus; nongerminated, 1% PDB, 15.0 μM): 51.3
Mean No. of Colonies (Aspergillus parasiticus; nongerminated, 1% PDB, 20.0 μM): 51.9
Mean No. of Colonies (Aspergillus parasiticus; [1]): 42.5
Mean No. of Colonies (Aspergillus parasiticus; [2]): 42.5
Mean No. of Colonies (Aspergillus parasiticus; [3]): 36.4
Mean No. of Colonies (Aspergillus parasiticus; [4]): 40.4
activity at 5 µM (Aspergillus niger; Aspergillus niger, 0.5 h, germinated, RPMI-1640, 5.0 μM): 94.9%
activity at 10 µM (Aspergillus niger; Aspergillus niger, 0.5 h, germinated, RPMI-1640, 10.0 μM): 86.2%
activity at 15 µM (Aspergillus niger; Aspergillus niger, 0.5 h, germinated, RPMI-1640, 15.0 μM): 93.9%
activity at 20 µM (Aspergillus niger; Aspergillus niger, 0.5 h, germinated, RPMI-1640, 20.0 μM): 85.4%
activity at 1 µM (Aspergillus niger; Aspergillus niger, 0.5 h, germinating, 1% PDB, 1.0 μM): 118%
activity at 2.5 µM (Aspergillus niger; Aspergillus niger, 0.5 h, germinating, 1% PDB, 2.5 μM): 89.8%
activity at 5 µM (Aspergillus niger; Aspergillus niger, 0.5 h, germinating, 1% PDB, 5.0 μM): 18.2%
activity at 10 µM (Aspergillus niger; Aspergillus niger, 0.5 h, germinating, 1% PDB, 10.0 μM): 12%
activity at 15 µM (Aspergillus niger; Aspergillus niger, 0.5 h, germinating, 1% PDB, 15.0 μM): 5.7%
activity at 20 µM (Aspergillus niger; Aspergillus niger, 0.5 h, germinating, 1% PDB, 20.0 μM): 3.9%
activity at 1 µM (Aspergillus niger; Aspergillus niger, 0.5 h, nongerminated, 1% PDB, 1.0 μM): 102%
activity at 2.5 µM (Aspergillus niger; Aspergillus niger, 0.5 h, nongerminated, 1% PDB, 2.5 μM): 96.6%
activity at 5 µM (Aspergillus niger; Aspergillus niger, 0.5 h, nongerminated, 1% PDB, 5.0 μM): 118%
activity at 10 µM (Aspergillus niger; Aspergillus niger, 0.5 h, nongerminated, 1% PDB, 10.0 μM): 92.7%
activity at 15 µM (Aspergillus niger; Aspergillus niger, 0.5 h, nongerminated, 1% PDB, 15.0 μM): 116%
activity at 20 µM (Aspergillus niger; Aspergillus niger, 0.5 h, nongerminated, 1% PDB, 20.0 μM): 64.4%
activity at 5 µM (Aspergillus niger; Aspergillus niger, 0.5 h, nongerminated, RPMI-1640, 5.0 μM): 76.8%
activity at 10 µM (Aspergillus niger; Aspergillus niger, 0.5 h, nongerminated, RPMI-1640, 10.0 μM): 87.7%
activity at 15 µM (Aspergillus niger; Aspergillus niger, 0.5 h, nongerminated, RPMI-1640, 15.0 μM): 83.8%
activity at 20 µM (Aspergillus niger; Aspergillus niger, 0.5 h, nongerminated, RPMI-1640, 20.0 μM): 104%
IC95 (Aspergillus niger; Aspergillus niger, 0.5 h, read-out: LD95): 15 µM and 18.6 µg/mL
minimal effective concentration (Aspergillus niger; Aspergillus niger, 0.5 h, read-out: concentration achieving significant lethality): 5 µM and 6.2 µg/mL
Mean No. of Colonies (Aspergillus niger; germinated, RPMI-1640, 5.0 μM): 50.1
Mean No. of Colonies (Aspergillus niger; germinated, RPMI-1640, 10.0 μM): 45.5
Mean No. of Colonies (Aspergillus niger; germinated, RPMI-1640, 15.0 μM): 49.6
Mean No. of Colonies (Aspergillus niger; germinated, RPMI-1640, 20.0 μM): 45.1
lethality to germinating conidia (Aspergillus niger; germinating conidia, RPMI-1640): no effect was observed
Mean No. of Colonies (Aspergillus niger; germinating, 1% PDB, 1.0 μM): 60.4
Mean No. of Colonies (Aspergillus niger; germinating, 1% PDB, 2.5 μM): 45.8
Mean No. of Colonies (Aspergillus niger; germinating, 1% PDB, 5.0 μM): 9.3
Mean No. of Colonies (Aspergillus niger; germinating, 1% PDB, 10.0 μM): 6.1
Mean No. of Colonies (Aspergillus niger; germinating, 1% PDB, 15.0 μM): 2.9
Mean No. of Colonies (Aspergillus niger; germinating, 1% PDB, 20.0 μM): 2.0
viability of nongerminated conidia (Aspergillus niger; [5]): not affected
Mean No. of Colonies (Aspergillus niger; nongerminated, 1% PDB, 1.0 μM): 36.5
Mean No. of Colonies (Aspergillus niger; nongerminated, 1% PDB, 2.5 μM): 34.5
Mean No. of Colonies (Aspergillus niger; nongerminated, 1% PDB, 5.0 μM): 42.3
Mean No. of Colonies (Aspergillus niger; nongerminated, 1% PDB, 10.0 μM): 33.1
Mean No. of Colonies (Aspergillus niger; nongerminated, 1% PDB, 15.0 μM): 41.5
Mean No. of Colonies (Aspergillus niger; nongerminated, 1% PDB, 20.0 μM): 23.0
Mean No. of Colonies (Aspergillus niger; [1]): 37.5
Mean No. of Colonies (Aspergillus niger; [2]): 42.8
Mean No. of Colonies (Aspergillus niger; [3]): 40.9
Mean No. of Colonies (Aspergillus niger; [4]): 51.0
activity against conidia (Fusarium oxysporum): not active
IC50 (Candida albicans): 3.1 µM and 3.8 µg/mL
IC90 (Candida albicans): 6.2 µM and 7.7 µg/mL
minimal effective concentration (Candida albicans; read-out: lowest effective level in vitro): ~3 µM
